Counter-ions that a name gives are not always drawn. Like-named read-outs stand apart in the source and are kept apart here.
Legend:
[1] = target: T1, human bradykinin 1 receptor (B1R) (Homo sapiens, UniProt P46663); assay: FLIPR Ca2+ assay, B1R antagonism, human; format: cell-based; conditions: 10 μM test substance, CHO K1 cells with human B1R gene (hB1R cells), Lys-Des-Arg9-bradykinin at EC80, % inhibition compared with the maximum achievable inhibition; for inhibition at 10 µM: read-out: B1R antagonism, human [10 μM] % inhibition
T1 construct: expressed in transfected cells
T1 sequence (P46663 1-353): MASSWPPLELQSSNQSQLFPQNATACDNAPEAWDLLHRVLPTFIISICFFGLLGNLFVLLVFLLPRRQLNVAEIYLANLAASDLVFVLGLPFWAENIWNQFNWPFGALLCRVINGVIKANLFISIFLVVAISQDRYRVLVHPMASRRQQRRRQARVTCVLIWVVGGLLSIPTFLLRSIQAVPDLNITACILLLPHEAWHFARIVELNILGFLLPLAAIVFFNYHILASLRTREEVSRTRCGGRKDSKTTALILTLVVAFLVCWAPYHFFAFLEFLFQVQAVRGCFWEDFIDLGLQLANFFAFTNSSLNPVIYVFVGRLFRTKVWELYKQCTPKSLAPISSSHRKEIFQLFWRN
Description: The agonistic or antagonistic action of substances can be quantified on the bradykinin 1 receptor (B1R) of the human and rat species with ectopically expressing cell lines (CHO K1 cells) and with the aid of a Ca^2+-sensitive dyestuff (Fluo-4) in a fluorescent imaging plate reader (FLIPR). The figure in % activation is based on the Ca^2+ signal after addition of Lys-Des-Arg^9-bradykinin (0.5 nM) or Des-Arg^9-bradykinin (100 nM). Antagonists lead to a suppression of the Ca^2+ inflow after addition of the agonist. % inhibition compared with the maximum achievable inhibition is stated.
The agonistic or antagonistic action of substances can be determined on the bradykinin 1 receptor (B1R) of the human and rat species with the following assay. In accordance with this assay, the Ca^2+ inflow through the channel is quantified with the aid of a Ca^2+-sensitive dyestuff (type Fluo-4, Molecular Probes Europe BV, Leiden, Holland) in a fluorescent imaging plate reader (FLIPR, Molecular Devices, Sunnyvale, USA).
Chinese hamster ovary cells (CHO K1 cells) transfected stably with the human B1R gene (hB1R cells) or the B1R gene of the rat (rB1R cells) are used. For functional studies, these cells are plated out on black 96-well plates with a clear base (BD Biosciences, Heidelberg, Germany or Greiner, Frickenhausen, Germany) in a density of 20,000-35,000 cells/well. The cells are left overnight at 37° C. and 5% CO2 in culture medium (hB1R cells: Nutrient Mixture Ham's F12, Gibco Invitrogen GmbH, Karlsruhe, Germany or DMEM, Sigma-Aldrich, Taufkirchen, Germany; rB1R cells: D-MEM/F12, Gibco Invitrogen GmbH, Karlsruhe, Germany) with 10 vol. % FBS (foetal bovine serum, Gibco Invitrogen GmbH, Karlsruhe, Germany or PAN Biotech GmbH, Aidenbach, Germany).
On the following day, the cells are loaded for 60 min at 37° C. with 2.13 μM Fluo-4 (Molecular Probes Europe BV, Leiden, Holland) in HBSS buffer (Hank's buffered saline solution, Gibco Invitrogen GmbH, Karlsruhe, Germany) with 2.5 mM probenecid (Sigma-Aldrich, Taufkirchen, Germany) and 10 mM HEPES (Sigma-Aldrich, Taufkirchen, Germany). The plates are then washed 2× with HBSS buffer, and HBSS buffer which additionally contains 0.1% BSA (bovine serum albumin; Sigma-Aldrich, Taufkirchen, Germany), 5.6 mM glucose and 0.05% gelatine (Merck KGaA, Darmstadt, Germany) is added. After a further incubation of 20 minutes at room temperature, the plates are inserted into the FLIPR for the Ca^2+ measurement.
Alternatively, the plates are washed with buffer A (15 mM HEPES, 80 mM NaCl, 5 mM KCl, 1.2 mM CaCl2, 0.7 mM MgSO4, 2 g/l glucose, 2.5 mM probenecid), buffer A is added and the plates are loaded with 2.5 μM Fluo-4 and 0.025% Pluronic F127 (Sigma-Aldrich, Taufkirchen, Germany). Thereafter, the cells are washed 2× with buffer A and incubated for 30 minutes with buffer A, which additionally contains 0.05% BSA and 0.05% gelatine, at room temperature and thereafter inserted into the FLIPR for the Ca^2+ measurement.
The Ca^2+-dependent fluorescence is measured here before and after addition of substances (λex=488 nm, λem=540 nm). Quantification is by measurement of the highest fluorescence intensity (FC, fluorescence counts) over time.
The FLIPR protocol consists of 2 additions of substance. Test substances (10 μM) are first pipetted on to the cells and the Ca^2+ inflow is compared with the control (hB1R: Lys-Des-Arg^9-bradykinin >=50 nM; rB1R: Des-Arg^9-bradykinin 10 μM). This gives the figure in % activation based on the Ca^2+ signal after addition of Lys-Des-Arg^9-bradykinin (>=50 nM) or Des-Arg^9-bradykinin (10 μM).
After incubation for 10-20 minutes, Lys-Des-Arg^9-bradykinin (hB1R) or Des-Arg^9-bradykinin (rB1R) in the concentration of the EC80 is applied and the inflow of Ca^2+ is likewise determined. Antagonists lead to a suppression of the Ca^2+ inflow. % inhibition compared with the maximum achievable inhibition is calculated. […]

[2] = target: T2, bradykinin 1 receptor (B1R) of the rat (Rattus norvegicus, UniProt P97583); assay: FLIPR Ca2+ assay, B1R antagonism, rat; format: cell-based; conditions: for B1R antagonism, rat [10 μM] % inhibition: 10 μM test substance
T2 construct: expressed in transfected cells
T2 sequence (P97583 1-337): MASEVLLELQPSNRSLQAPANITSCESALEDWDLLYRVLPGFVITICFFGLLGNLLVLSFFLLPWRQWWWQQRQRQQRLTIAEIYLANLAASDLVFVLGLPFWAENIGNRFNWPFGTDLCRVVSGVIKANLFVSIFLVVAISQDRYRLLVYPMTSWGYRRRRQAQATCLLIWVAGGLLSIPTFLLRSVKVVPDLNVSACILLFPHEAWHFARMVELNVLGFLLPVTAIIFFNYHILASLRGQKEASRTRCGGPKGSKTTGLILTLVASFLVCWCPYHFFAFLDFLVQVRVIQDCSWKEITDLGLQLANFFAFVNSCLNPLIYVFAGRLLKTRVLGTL
Summary of the method: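 CHO K1 cells stably expressing human or rat B1R, loaded with Fluo-4 and read in FLIPR (ex 488, em 540 nm, peak fluorescence). Test compound 10 μM preincubated 10-20 min, then EC80 agonist added (Lys-Des-Arg9-bradykinin for human, Des-Arg9-bradykinin for rat); % inhibition relative to maximum achievable inhibition.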

[3] = CHO-K1, 10 μM test substance, CHO K1 cells with rat B1R gene (rB1R cells), Des-Arg9-bradykinin at EC80, % inhibition compared with the maximum achievable inhibition, read-out: B1R antagonism, rat [10 μM] % inhibition
[4] = CHO K1 cells with rat B1R gene (rB1R cells), Des-Arg9-bradykinin at EC80, % inhibition compared with the maximum achievable inhibition

Row | Compound | inhibition at 10 µM [1] [%] | inhibition at 10 µM [2, 3] [%] | further results
1 | COc1cc(C)c(S(=O)(=O)N(C)CCOCC(=O)N2CCC(OCCN3CCN(C)CC3)(c3cccnc3)CC2)c(C)c1 [Example 29, 4-methoxy-N,2,6-trimethyl-N-(2-(2-(4-(2-(4-methylpiperazin-1-yl)ethoxy)-4-(pyridin-3-yl)piperidin-1-yl)-2-oxoethoxy)ethyl)benzenesulfonamide] | 99 | 101 | –
2 | 3-[[1-[(4-methoxy-2,6-dimethyl-phenyl)sulfonyl]-piperidin-2-yl]-methoxy]-1-[4-pyridin-3-yl-4-(2-pyrrolidin-1-yl-ethoxy)-piperidin-1-yl]-propan-1-one [Example 120] | – | – | B1R antagonism, human [10 μM] % inhibition [1]: 100%; B1R antagonism, rat [10 μM] % inhibition [2, 4]: 103%
3 | COc1cc(C)c(S(=O)(=O)N(C)CCOCC(=O)N2CCC(OCCN3CCCC3)(c3ccncc3)CC2)c(C)c1C [Example 115, 4-methoxy-N,2,3,6-tetramethyl-N-[2-[2-oxo-2-[4-pyridin-4-yl-4-(2-pyrrolidin-1-yl-ethoxy)-piperidin-1-yl]-ethoxy]-ethyl]-benzenesulfonic acid amide] | 100 | 102 | –
4 | COc1cc(C)c(S(=O)(=O)N2CCCC[C@H]2COCC(=O)N2CCC(OCCN3CCCC3)(c3cccnc3)CC2)c(C)c1 [Example 46, (S)-2-((1-(4-methoxy-2,6-dimethylphenylsulfonyl)piperidin-2-yl)methoxy)-1-(4-(pyridin-3-yl)-4-(2-(pyrrolidin-1-yl)ethoxy)piperidin-1-yl)ethanone hydrochloride] | 100 | 102 | –
5 | O=C(COCC1CCCCN1S(=O)(=O)c1ccccc1C(F)(F)F)N1CCC(OCCN2CCCC2)(c2cccnc2)CC1 (centres unmarked) [Example 116, 1-[4-pyridin-3-yl-4-(2-pyrrolidin-1-yl-ethoxy)-piperidin-1-yl]-2-[[1-[[2-(trifluoromethyl)-phenyl]sulfonyl]-piperidin-2-yl]-methoxy]-ethanone] | 100 | 101 | –
6 | O=C(CC(NS(=O)(=O)c1ccc2ccccc2c1)c1ccccc1)N1CCC(OCCCN2CCCC2)(c2cccnc2)CC1 (centres unmarked) [Example 44, N-(3-oxo-1-phenyl-3-(4-(pyridin-3-yl)-4-(3-(pyrrolidin-1-yl)propoxy)piperidin-1-yl)propyl)naphthalene-2-sulfonamide] | 95 | 102 | –
7 | COc1cc(C)c(S(=O)(=O)N2CCCC[C@H]2COCC(=O)N2CCC(OCCN3CCC3)(c3cccnc3)CC2)c(C)c1 [Example 61, 1-[4-[2-(azetidin-1-yl)-ethoxy]-4-pyridin-3-yl-piperidin-1-yl]-2-[[(2S)-1-[(4-methoxy-2,6-dimethyl-phenyl)sulfonyl]-piperidin-2-yl]-methoxy]-ethanone] | 100 | 101 | –
8 | COc1cc(C)c(S(=O)(=O)N2CCCCC2CCCC(=O)N2CCC(OCCN3CCCC3)(c3cccnc3)CC2)c(C)c1 (centres unmarked) [Example 2, 4-(1-(4-methoxy-2,6-dimethylphenylsulfonyl)piperidin-2-yl)-1-(4-(pyridin-3-yl)-4-(2-(pyrrolidin-1-yl)ethoxy)piperidin-1-yl)butan-1-one] | – | – | B1R antagonism, human [10 μM] % inhibition ([1]; 10 µM): 97%; inhibition at 10 µM ([2]; CHO-K1, read-out: B1R antagonism, rat [10 μM] % inhibition): 99%
9 | COc1cc(C)c(S(=O)(=O)N2c3ccccc3CCC2COCC(=O)N2CCC(OCCN3CCCC3)(c3cccc(F)c3)CC2)c(C)c1 (centres unmarked) [Example 102, 1-[4-(3-fluorophenyl)-4-(2-pyrrolidin-1-yl-ethoxy)-piperidin-1-yl]-2-[[1-[(4-methoxy-2,6-dimethyl-phenyl)sulfonyl]-1,2,3,4-tetrahydro-quinolin-2-yl]-methoxy]-ethanone] | 99 | 98 | –
10 | COc1cc(C)c(S(=O)(=O)N2CCCCC2COCC(=O)N2CCC(OCCN3CCCC3)(c3cccnc3)CC2)c(C)c1 (centres unmarked) [Example 82, 2-[[1-[(4-methoxy-2,6-dimethyl-phenyl)sulfonyl]-piperidin-2-yl]-methoxy]-1-[4-pyridin-3-yl-4-(2-pyrrolidin-1-yl-ethoxy)-piperidin-1-yl]-ethanone] | – | – | B1R antagonism, human [10 μM] % inhibition ([1]; 10 µM): 100%; B1R antagonism, rat [10 μM] % inhibition [2, 4]: 102%
11 | Cc1cccc(Cl)c1S(=O)(=O)N1c2ccccc2OCC1COCC(=O)N1CCC(OCCN2CCCC2)(c2cccc(F)c2)CC1 (centres unmarked) [Example 109, 2-[[4-[(2-chloro-6-methyl-phenyl)sulfonyl]-3,4-dihydro-2H-[1,4]benzoxazin-3-yl]-methoxy]-1-[4-(3-fluorophenyl)-4-(2-pyrrolidin-1-yl-ethoxy)-piperidin-1-yl]-ethanone] | 91 | 99 | –
12 | CN1CCN(CCCOC2(c3cccnc3)CCN(C(=O)CC3CCCCN3S(=O)(=O)c3cccc(C(F)(F)F)c3)CC2)CC1 (centres unmarked) [Example 35, 1-(4-(3-(4-methylpiperazin-1-yl)propoxy)-4-(pyridin-3-yl)piperidin-1-yl)-2-(1-(3-(trifluoromethyl)phenylsulfonyl)piperidin-2-yl)ethanone] | 21 | 97 | –
13 | Cc1cc(S(=O)(=O)N2CCCCC2CCC(=O)N2CCC(OCCN3CCN(C)CC3)(c3cccnc3)CC2)c(C)cc1Cl (centres unmarked) [Example 31, 3-(1-(4-chloro-2,5-dimethylphenylsulfonyl)piperidin-2-yl)-1-(4-(2-(4-methylpiperazin-1-yl)ethoxy)-4-(pyridin-3-yl)piperidin-1-yl)propan-1-one] | 85 | 61 | –

Source: patent US8318769B2, “Substituted sulfonamide compounds” (Gruenethal GmbH, priority 2008, dated 2012)
